The Kinase Knowledgebase extract (Sharma et al. 2016)

Key:
[1] = biological target: CDK2 (human) (UniProt P24941); test: Enzyme Assay
[2] = biological target: CDK2 (human) (UniProt P24941); test: Enzyme Assay; remark: listed apart in the source

Compound	Kd [1]	Kd [2]
COC[C@@H]1CCCN1c1ncnc(Nc2cccc(CS(N)(=O)=O)c2)n1	> 10 µM	
COC[C@H]1CCCCN1c1ncnc(Nc2cccc(CS(N)(=O)=O)c2)n1	> 10 µM	
NS(=O)(=O)Cc1cccc(Nc2ncnc(N3CCCCC3)n2)c1	> 10 µM	> 10 µM
NS(=O)(=O)Cc1cccc(Nc2ncnc(N3CCCC3c3ccccc3)n2)c1 (configuration not stated)		> 10 µM
NS(=O)(=O)Cc1cccc(Nc2ncnc(N3CCC[C@@H]3COCc3ccccc3)n2)c1	> 10 µM	
CN(C)CCC1CCCCN1c1ncnc(Nc2cccc(CS(N)(=O)=O)c2)n1 (configuration not stated)		> 10 µM
NS(=O)(=O)Cc1cccc(Nc2ncnc(N3CCC[C@H]3CO)n2)c1	> 10 µM	
NS(=O)(=O)Cc1cccc(Nc2ncnc(N3Cc4cn[nH]c4C3)n2)c1		0.1 to 1 µM
NS(=O)(=O)Cc1cccc(Nc2ncnc(N3CCC[C@@H]3CN3CCCC3)n2)c1	> 10 µM	
NS(=O)(=O)Cc1cccc(Nc2ncnc(N3CCC[C@@H]3CO)n2)c1	> 10 µM	
NS(=O)(=O)Cc1cccc(Nc2ncnc(N3CCCc4ccccc43)n2)c1	0.1 to 1 µM	
COC[C@H]1CCN1c1ncnc(Nc2cccc(CS(N)(=O)=O)c2)n1	> 10 µM	

The remaining lines, values ahead:

Kd [1]	Kd [2]	Compound
0.1 to 1 µM	0.1 to 1 µM	NS(=O)(=O)Cc1cccc(Nc2ncnc(N3CCc4ncccc4C3)n2)c1
0.1 to 1 µM		NS(=O)(=O)Cc1cccc(Nc2ncnc(N3Cc4ccncc4C3)n2)c1
< 0.1 µM		NS(=O)(=O)Cc1cccc(Nc2ncnc(N3CCc4nc[nH]c4C3)n2)c1
< 0.1 µM	< 0.1 µM	NS(=O)(=O)Cc1cccc(Nc2ncnc(N3CCCn4nccc43)n2)c1
< 0.1 µM	< 0.1 µM	NS(=O)(=O)Cc1cccc(Nc2ncnc(N3CCc4ncsc4C3)n2)c1
0.1 to 1 µM		NS(=O)(=O)Cc1cccc(Nc2ncnc(N3CCc4ccccc43)n2)c1
